Columns and labels:
IL-2 secretion by PBMCs = test: IL-2 ELISA in PBMCs; type: cell-based, human; conditions: 24 h
Protocol: Cryopreserved PBMCs from a single donor were thawed in RPMI-1640 plus 10% FBS. PBMCs were plated at 5×10^4/well in 96-well plates and compound was added with a final concentration of 0.5% DMSO. Plates were incubated for 24 h at 37°C, 5% CO2. Interleukin-2 was quantified using Human IL-2 DuoSet ELISA (R&D Systems, Minneapolis, MN). Raw data were converted to ng/ml IL-2 using a standard curve obtained in parallel.

[1] = Cytotoxicity assay in stimulated PBMCs (ATP, CellTiter-Glo); type: cell-based; conditions: PBMCs stimulated with PHA and IL-2, ATP quantification
Protocol: SupT1 cells were plated at 100,000 per well in 96-well, white-walled plates with serial dilutions of test compound in a total volume of 100 μl RPMI-1640 medium containing 10% FBS and 0.5% DMSO. PBMCs were plated similarly at 50,000 cells/well and stimulated by addition of 40 μg/ml PHA and 80 ng/ml interleukin-2 (IL-2). Cells were incubated for 72 h at 37°C, 5% CO2. ATP was quantified using the CellTiter-Glo Luminescent Cell Viability Assay (Promega, Madison, WI) on a ViewLux microplate imager (Perkin Elmer, Waltham, MA). Percent cytotoxicity was determined relative to vehicle-only treated wells.

HIV-1 LTR = test: HIV LTR-driven Rluc reporter in HeLa cells; type: cell-based; conditions: transfected HeLa cells, 24 h
Excerpt: The vector pGL4.77[hRlucP/Hygro] encoding a Renilla luciferase gene including a PEST destabilization sequence, was purchased from Promega (Madison, WI). HIV-1 cDNA was generated from HIVIIIB virus using PureLink® Viral RNA/DNA Mini Kit (Invitrogen). The HIV-1 core promoter region (nucleotides -105 to 60) was amplified from HIVIIIB cDNA using primers designed with NheI (forward: 5ʹ-GCTAGCGGGACTTTCCGCTGGG-3ʹ) and XhoI (reverse: 5ʹ-CTCGAGAGTGGGTTCCCTAGTTAGCCA-3ʹ) flanking restriction site sequences. DNA fragments were generated using Platinum® Taq DNA Polymerase High Fidelity (Invitrogen) and fragment size was verified by electrophoresis using E-Gel® 1.2% agarose (Invitrogen). Fragments were cloned into pCR™2.1 TOPO® (Invitrogen), transformed into One Shot® TOP10 Chemically Competent E. coli (Invitrogen), and selected on LB-agar plates containing 100 μg/ml ampicillin. Individual colonies were grown in LB broth, DNA was isolated using QIAprep® Spin Miniprep Kit (Qiagen), and the inserted fragment was verified by EcoRI digestion followed by electrophoresis using E-Gel® 1.2% agarose (Invitrogen). To insert the HIV-1 LTR into the vector multiple cloning region, the resultant plasmids and pGL4.77[hRlucP/Hygro] were dually digested with NheI and XhoI (New England Biolabs), ligated using ExpressLink™ T4 DNA Ligase (Invitrogen), transformed into One Shot® TOP10 Chemically Competent E. coli (Invitrogen), and selected on LB-agar plates containing 100 μg/ml ampicillin. Clones were picked and DNA isolated using QIAprep® Spin Miniprep Kit (Qiagen) and the inserted fragment was verified by NheI/XhoI digestion followed by electrophoresis using E-Gel® 1.2% agarose (Invitrogen). The resultant plasmid, pGL4.77-LTR, was verified by sequencing at GENEWIZ (South Plainfield, NJ). […] Luciferase activity was quantified using Renilla Luciferase Assay System (Promega, Madison, WI) and results were normalized to the vehicle-treated control.

[2] = system: NF-κB response element reporter in Jurkat cells; test: NF-κB-responsive Fluc reporter in Jurkat cells; type: cell-based, human; conditions: stably-transfected Jurkat cells, 4 h
Excerpt: The vector pGL4.32[luc2P/NF-κB-RE/Hygro] was purchased from Promega (Madison, WI), encoding 5 copies of a NF-κB response element driving expression of synthetic firefly luciferase gene, luc2, including a PEST destabilization sequence. Jurkat cells were transfected with this vector using a Gene Pulser® II (Biorad, Hercules, CA) with a 0.4 cm gap cuvette at 0.2 kV and 960 μF. Cells were allowed to recover for three days in RPMI-1640 with 10% FBS and 1% penicillin/streptomycin before selection with 200 μg/ml Hygromycin B for one month. Pooled, stably-transfected cells were plated at 50,000/well in 96-well plates and treated with test compounds in a final concentration of 0.5% DMSO for 4 h at 37°C. Luciferase activity was determined by adding one volume 2× steadylite plus reagent (Perkin Elmer, Waltham, MA) and reading on a ViewLux microplate imager.

[3] = system: Kaposi's sarcoma associated herpesvirus (KSHV) in BCP-1 cells; test: KSHV activation assay in BCP-1 cells (ORF50 qRT-PCR); type: cell-based; conditions: 24 h, up to 100 μM
[4] = Microsome assay, mouse liver microsomes; type: in vitro ADME
Protocol: Human and mouse liver microsomes were obtained from XenoTech, LLC (Kansas City, KS). The reaction mixture was composed of liver microsomes (0.5 mg/mL), 20 mM Tris-HCl pH 7.4, 2.5 mM MgCl2, and an NADPH generating system (0.1 mM NADP, 1.2 mM glucose-6-phosphate and 0.3 units/ml glucose-6-phophate dehydrogenase). […] Test compounds were added to the microsome reaction and loss of parent molecule was monitored after 1 h by LC/MS/MS.

Caco-2 cells = test: Caco-2 assay; type: in vitro ADME, human; conditions: 10 μM, 1 h, top to bottom chamber
Protocol: Caco-2 cells obtained from ATCC were plated on filters of a 24-well Boyden chamber and allowed to replicate for five days. Prior to initiating a study, the integrity of the cell layer was assessed by measuring the transepithelial electrical resistance (TEER) values. […] After 1h, medium was removed from the bottom chamber. After completion of the assay, the integrity of the cell layer was measured by transfer of the fluorescent dye, Lucifer yellow, across the cell layer. Samples taken from the apical chamber at the start of the study and from the basal chamber at the end of the study were assessed for drug levels using LC-MS/MS technology and used to calculate the apparent permeability (Papp).

[5] = Protein binding, human plasma (ultrafiltration); type: in vitro ADME; conditions: human, plasma, pH 7.4
Protocol: Binding of test compound to plasma proteins was estimated by incubation of test compounds with mouse or human plasma. Human plasma was obtained from BioreclamationIVT (Westbury, NY). […] After a 15 min incubation at 37°C, triplicate aliquots of the incubation mixtures were transferred to a Millipore Multiscreen Ultracel-10 filter plate (10 kDa molecular mass cut off, EMD Millipore, Billerica, MA). The plate was centrifuged for 60 min at 3000 × g and 37°C. After centrifugation, aliquots of both the ultrafiltrates as well as the incubation mixtures prior to ultrafiltration were analyzed by LC-MS/MS to quantify the concentrations of test compound and reference compounds.

Nc1ccc2[nH]c(-c3ccc(-c4nc5cc(N)ccc5o4)cc3)nc2c1 [Compound 1, 2-(4-(5-amino-1H-benzimidazol-2-yl)phenyl)benzoxazol-5-amine]
IL-2 secretion by PBMCs (in words) (IL-2 secretion by PBMCs): neither Compound 1 nor 2 increased secretion of IL-2
CC50 at 72 h [1]: 18 ± 6.8 µM
Transcription driven by the HIV-1 LTR (in words) (HIV-1 LTR): did not significantly increase transcription
Induction of NF-κB driven reporter (in words) [2]: Neither Compound 1 nor Compound 2 induced
Effect on ORF50 mRNA (KSHV) [3]: little effect
MLM stability (% loss of parent compound at 1 h) [4]: 28%
Caco-2 Papp (Caco-2 cells): 38 10^−6 cm/s
Caco-2 Papp (Caco-2 cells; listed as compound 1): 4.8 10^−6 cm/s
fraction unbound at 15 min, 10 μM [5]: < 0.01

Nc1ccc2[nH]c(-c3ccc(-c4nc5ccc(N)cc5o4)cc3)nc2c1 [Compound 2]
IL-2 secretion by PBMCs (in words) (IL-2 secretion by PBMCs): neither Compound 1 nor 2 increased secretion of IL-2
CC50 at 72 h [1]: > 100 µM
Transcription driven by the HIV-1 LTR (in words) (HIV-1 LTR): did not significantly increase transcription
Induction of NF-κB driven reporter (in words) [2]: Neither Compound 1 nor Compound 2 induced
Effect on ORF50 mRNA (KSHV) [3]: little effect
MLM stability (% loss of parent compound at 1 h) [4]: 53%
Caco-2 Papp (Caco-2 cells): 4.8 10^−6 cm/s
Caco-2 Papp (Caco-2 cells; listed as compound 2): 38 10^−6 cm/s
fraction unbound at 15 min, 10 μM [5]: < 0.003

Source: publication PMC5489165, “Identification of benzazole compounds that induce HIV-1 transcription” (PLoS ONE, 2017)
